Experimental data taken from article PMC5603603, “Linoleic and palmitoleic acid block streptokinase-mediated plasminogen activation and reduce severity of invasive group A streptococcal infection” (Scientific Reports, 2017).
“And” between values parts separate entries of the source, which are not always exact repeats. Equal entries are not always repeated.

How the values were obtained:
[1] = target: cluster 2b type streptokinase (Streptococcus pyogenes, UniProt P10520); design: species or system group A streptococcal strain A314; conditions: cell-based; for IC50: cluster 2b; for fold lower IC50 compared to TXA and EACA: streptokinase cluster type 2b
Experimental: (§1) Then inhibitory compounds (LA, PA, oleic, myristic, stearic, palmitic, arachidonic, arachidic, linolenic acid, TXA or EACA) were added. Stocks of LA and PA were prepared in methanol and then diluted in PBS. Stocks of arachidic, oleic, arachidonic, myristic, palmitic, stearic and linolenic acid were prepared in 60% DMSO/PBS and then diluted in PBS. The untreated control received the same amount of PBS as in case of TXA and EACA as control or the same amount of methanol diluted in PBS as in case of LA and PA, respectively, or the same amount of DMSO diluted in PBS as in case of the other commercially available fatty acids. […] The assay was incubated at 37 °C and measured at the beginning of the reaction and then every hour at 405 nm after 3 sec of shaking on a Tecan Sunrise ELISAReader using Magellan software. Each experiment was repeated three times. IC50 values were calculated using Microsoft® Excel software.

[2] = target: cluster 1 type streptokinase (Streptococcus pyogenes, UniProt P10520); assay type: biochemical, group A streptococcal strain A328; conditions: supernatant-based; for IC50: cluster 1; for fold lower IC50-values than TXA and EACA: cluster 1 type streptokinase
Experimental: as §1, with “An overnight culture of the strain A328 (cluster 1 type) or A614 (cluster 2a type) was diluted 1:10 in pre-warmed THY medium and grown to an OD600 of around 0.5 at 37 °C. […] The pellet was resuspended in Tris-HCl buffer (50 mM Tris pH 7.5). Then” for “Then”, “added. Stocks of TXA and EACA were prepared in PBS.” for “added.”, “run” for “incubated”, “°C. The absorption was” for “°C and”

S. pyogenes strain A666 = assay: Clotting assay, escape of streptococci from clot (cluster 2b type streptokinase); assay type: cell-based; conditions: 60 µg/ml, after 4 h, p < 0.05
Experimental: To assess whether LA and PA influence the entrapment of bacteria within clots, a 50 ml overnight culture (THY medium) of the S. pyogenes strains AP1 or A666 was centrifuged at 4332 × g for 10 min. […] For clot induction, 100 µl citrate plasma, 100 µl of the respective bacterial suspension and 50 µl thrombin-reagent (Haemochrom Diagnostica) were used. […] Then clots were left untreated (treated with sodium citrate buffer only) or were treated with LA or PA (diluted in sodium citrate buffer). For clots formed with S. pyogenes strain A666, a final concentration of 60 µg/ml was used for both, LA and PA. For those formed with S. pyogenes strain AP1, a final concentration of 30 µg/ml was used. 50 µl of the supernatant of each sample were plated onto blood agar plates in serial dilutions at 0, 2 and 4 h after clot induction and incubated at 37 °C overnight. Colonies were counted the following day to assess the number of bacteria which had escaped the clot. […] Two independent experiments were performed. Standard deviations were calculated accordingly. Citrate plasma was obtained from healthy volunteers who gave their informed consent.

S. pyogenes strain AP1 = assay: Invasive humanized plasminogen murine infection model; assay type: in vivo, Humanized Plg transgenic AlbPLG1 mice; conditions: 50 µg s.c. (approx. 2 mg/kg) once on day of infection; for Hazard ratio (Mantel-Haenszel) treated/untreated: 1 × 10^7 cfu AP1 s.c.; for survival time in comparison with the untreated group: p = 0.0021
Experimental: All animal experiments were performed in strict accordance with the guidelines of the “European Convention for the Protection of Vertebrate Animals used for Experimental and other Scientific purposes”, with the “Australian Code of Practice for the Care and Use of Animals for Scientific Purposes” and with the “Guidelines for the Care and Use of Laboratory Animals” (National Health and Medical Research Council, Australia). All experiments conducted in Germany were approved by the ethical board of “Niedersächsisches Landesamt für Verbraucherschutz und Lebensmittelsicherheit”, Oldenburg, Germany (animal ethics no.: 33.9-42502-04-12/1009). All experiments conducted in Australia were approved by the University of Queensland Animal Ethics Committee, Brisbane, Australia (animal ethics no.: SCMB/ 553/12/NHMRC). Humanized Plg transgenic AlbPLG1 mice, heterozygous for the human Plg gene[6], were bred and used in the animal facility at the Helmholtz Centre for Infection Research or at the Australian Infectious Disease Research Centre. An overnight culture of the strain AP1 (in THY medium) was re-inoculated in fresh THY medium and grown until mid-log phase (OD 0.4–0.6). Then the bacteria were centrifuged at 4332 × g for 10 min and washed twice in PBS. They were resuspended in PBS and adjusted to an OD of 1.0. Sex- and age-matched (eight- to sixteen-week-old) groups of C57Bl6/J huPlg positive transgenic mice were infected s.c. with 1 × 10^7 cfu of S. pyogenes strain AP1. Cohorts of 15–16 mice were used (the experiment was performed four times with cohorts of 3–5 mice). The specific inoculum dose was administered in a 100 µl volume. Untreated mice received PBS subcutaneously (s.c.) as a control on the day of infection. Treated mice received either 50 µg of linoleic acid (diluted in PBS) or 50 µg of palmitoleic acid (diluted in PBS) s.c. on the day of infection. During the experiment mice were monitored for locomotion, behavior, appearance and weight. Mice were euthanized when they lost more than 20% of weight or when they reached a score of two for three of the following parameters: locomotion, appearance or behavior (authority regulations). The experiment ended after 7 days or after all mice had died.
Significance was determined by using a two-tailed, paired student’s t-test. Survival data were analyzed using GraphPad Prism7 Software. Significance was determined by using a Mantel-Cox- and a Wilcoxon-Test.

Chain of cluster 1 type streptokinase (P00747 20-810): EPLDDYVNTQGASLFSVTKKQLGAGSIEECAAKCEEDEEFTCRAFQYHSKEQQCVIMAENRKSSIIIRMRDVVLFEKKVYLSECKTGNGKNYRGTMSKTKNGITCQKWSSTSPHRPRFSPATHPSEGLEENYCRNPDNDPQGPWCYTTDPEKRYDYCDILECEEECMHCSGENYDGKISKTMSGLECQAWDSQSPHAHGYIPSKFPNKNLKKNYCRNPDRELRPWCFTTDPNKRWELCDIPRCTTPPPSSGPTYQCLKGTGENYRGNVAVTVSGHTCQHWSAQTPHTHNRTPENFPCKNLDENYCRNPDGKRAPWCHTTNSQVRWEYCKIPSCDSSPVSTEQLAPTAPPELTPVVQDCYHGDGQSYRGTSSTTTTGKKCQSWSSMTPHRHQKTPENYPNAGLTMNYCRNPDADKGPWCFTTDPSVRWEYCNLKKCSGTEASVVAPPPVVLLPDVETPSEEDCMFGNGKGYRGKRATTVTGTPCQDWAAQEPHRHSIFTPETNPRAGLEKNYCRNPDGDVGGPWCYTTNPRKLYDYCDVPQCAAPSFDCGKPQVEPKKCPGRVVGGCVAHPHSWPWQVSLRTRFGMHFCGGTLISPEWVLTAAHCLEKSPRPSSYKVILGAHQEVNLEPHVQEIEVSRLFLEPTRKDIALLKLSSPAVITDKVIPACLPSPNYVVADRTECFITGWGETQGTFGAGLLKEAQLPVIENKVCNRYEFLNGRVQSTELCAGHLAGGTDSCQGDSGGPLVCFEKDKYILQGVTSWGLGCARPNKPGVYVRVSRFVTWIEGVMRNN
Chain of cluster 1 type streptokinase (P10520 27-440): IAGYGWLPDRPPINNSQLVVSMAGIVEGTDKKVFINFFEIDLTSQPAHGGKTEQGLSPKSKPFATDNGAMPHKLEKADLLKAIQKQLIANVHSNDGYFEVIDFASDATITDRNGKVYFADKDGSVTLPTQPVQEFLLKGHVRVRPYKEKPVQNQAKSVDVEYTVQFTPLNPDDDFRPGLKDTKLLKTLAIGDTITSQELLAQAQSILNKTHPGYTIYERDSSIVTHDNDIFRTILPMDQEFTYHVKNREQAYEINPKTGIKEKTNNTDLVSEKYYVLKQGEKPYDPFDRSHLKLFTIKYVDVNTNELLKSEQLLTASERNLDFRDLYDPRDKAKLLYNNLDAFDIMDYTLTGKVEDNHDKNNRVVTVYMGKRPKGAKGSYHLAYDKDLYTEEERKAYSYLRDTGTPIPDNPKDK

CCCCC/C=C\C/C=C\CCCCCCCC(=O)O [LA, linoleic acid]
IC50 [1]: 64.5 µM and 61.7 µM
fold lower IC50 compared to TXA and EACA [1]: 1000 fold
IC50 [2]: 46.6 µM and 46 µM
fold lower IC50-values than TXA and EACA [2]: 500–1000 fold
GAS escaped from the clot compared to the untreated clot (S. pyogenes strain A666): significantly lower amount of GAS escaped
Hazard ratio (Mantel-Haenszel) treated/untreated (S. pyogenes strain AP1): 0.1429
survival time in comparison with the untreated group (S. pyogenes strain AP1): significantly extended the survival time

CCCCCC/C=C\CCCCCCCC(=O)O [PA, palmitoleic acid]
IC50 [1]: 61.1 µM and 63.3 µM
fold lower IC50 compared to TXA and EACA [1]: 1000 fold
IC50 [2]: 40.9 µM
fold lower IC50-values than TXA and EACA [2]: 500–1000 fold
GAS escaped from the clot compared to the untreated clot (S. pyogenes strain A666): significantly lower amount of GAS escaped
Hazard ratio (Mantel-Haenszel) treated/untreated (S. pyogenes strain AP1): 0.1429
survival time in comparison with the untreated group (S. pyogenes strain AP1): significantly extended the survival time
